Data published in PubChem BioAssay AID652241 (Broad Institute, 2013).
Inconclusive results are not listed. Activity calls are given as the source filed them.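 Rule for the calls: active = fitted curve reaches activity 50 in the expected rising direction at or below the top valid tested dose; inconclusive = no clear call, values can overlap the other calls; inactive = activity in the wrong direction, and the rest.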

biological target: Virion infectivity factor (Human immunodeficiency virus type 1 group M subtype B (isolate BH10)) + Virion infectivity factor (Human immunodeficiency virus type 1 group M subtype B (isolate BRU/LAI)) + Virion infectivity factor (Human immunodeficiency virus type 1 group M subtype B (isolate PCV12)) + Virion infectivity factor (Human immunodeficiency virus type 1 group M subtype B (isolate HXB2)) (UniProt P69720+P69721+P69722+P69723); assay: Vif multimerization inhibitor potency, dose response, imaging, HEK293T, cherry-picks (AID 652241); conditions: 24 h;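 note: imaged cell signal that rises when Vif self-association is disrupted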
Sequence (P69720 whole entry, looked up): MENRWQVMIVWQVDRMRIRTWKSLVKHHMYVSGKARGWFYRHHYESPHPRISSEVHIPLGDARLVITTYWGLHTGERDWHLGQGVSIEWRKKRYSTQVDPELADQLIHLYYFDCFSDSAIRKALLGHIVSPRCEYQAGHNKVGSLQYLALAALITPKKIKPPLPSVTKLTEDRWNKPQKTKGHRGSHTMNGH
Sequence (P69721 whole entry, looked up): as the sequence (P69720 whole entry, looked up) above
Sequence (P69722 whole entry, looked up): as the sequence (P69720 whole entry, looked up) above
Sequence (P69723 whole entry, looked up): as the sequence (P69720 whole entry, looked up) above

Structure (SMILES) | AC50
CCOc1ccc(N2C(=O)/C(=C/c3cccs3)N(CC(=O)OC)C2=S)cc1 | > 19.5 µM (inactive)
COc1ccc(-c2ccc3c(N)c(C(=O)c4ccc(OC)c(OC)c4)sc3n2)cc1 | > 19.5 µM (inactive)
FC(F)(F)c1nnc2c3ccccc3c(Cl)nn12 | 12.5 µM
COc1ccc(-c2cc(N)n(S(=O)(=O)c3c(F)c(F)c(F)c(F)c3F)n2)cc1OC | 13.4 µM
Nc1c(C(=O)Nc2nc3ccccc3s2)sc2nc(-c3cccs3)ccc12 | 7.57 µM
c1ccc(-c2cn3nc(-c4ccccc4)c(-c4ccccc4)nc3n2)cc1 | 19.2 µM
CC(=O)Nc1ccc(S(=O)(=O)N2c3ccccc3C(C)=CC2(C)C)cc1 | > 19.5 µM (inactive)
Cc1nnc2ccc(-c3ccc(NS(=O)(=O)c4ccc(F)cc4F)cc3)nn12 | > 19.5 µM (inactive)
COc1cc(NC(=O)c2ccc(-c3csc(C)n3)cc2)c(OC)cc1Cl | 10.3 µM
Cn1c(=O)[nH]c(=O)c2c1nc([N+](=O)[O-])n2Cc1ccccc1 | 5.03 µM
COc1cc2ccccc2cc1C(=O)Nc1ccc(Cl)cn1 | 13 µM
COC(=O)c1ccc(Oc2coc3cc(OCc4cnn(-c5ccccc5)c4)ccc3c2=O)cc1 | 17.2 µM
CC(=O)Nc1ccc(NC(=O)COc2ccccc2C(=O)Nc2cccc(Cl)c2Cl)cc1 | 5.9 µM
COc1ccc(-c2nc3cnccn3c2NC2CCCCC2)cc1-c1cccc(Cl)c1 | 14.5 µM
CCc1ccc(N2C(=O)/C(=C/c3cccs3)N(CC(=O)OC)C2=S)cc1 | 18.8 µM
COc1ccc(-c2cc(C(F)(F)F)nc(S(C)(=O)=O)n2)cc1OC | 8.03 µM
COc1cccc(NC(=O)NC2(C(F)(F)F)Oc3ccccc3O2)c1 | > 19.5 µM (inactive)
N#Cc1c(C(F)(F)F)cc(-c2ccco2)nc1SCc1ccncc1 | 15.8 µM
Cc1ccc(C(c2cc(Cl)c3cccnc3c2O)N2CCN(C)CC2)cc1 (configuration not stated) | 5.7 µM
COc1cc(-c2cnc3c(NC=O)cc(-c4ccccc4)cn23)cc(OC)c1OC | 2.45 µM

same assay, conditions: 24 h, at 2.1 µM (top of the series)

Structure (SMILES) | activity, higher = inhibition
OCC1OC(n2cnc3c(NCc4ccco4)ncnc32)C(O)C1O (configuration not stated) | inactive
Cc1ccc(/C=C2/CNC/C(=C/c3ccc(C)cc3)C2=O)cc1 | inactive

same assay, conditions: 24 h, at 6.8 µM (top of the series)

Structure (SMILES) | activity, higher = inhibition
COc1ccc(C(=O)c2sc3nc(C)cc(-c4cccs4)c3c2N)cc1OC | inactive
CCCN1C(=O)/C(=C\C=C2\N(CC)c3ccccc3C2(C)C)SC1=S | inactive
COc1cc(Nc2nc3ccccc3n3nnnc23)cc(OC)c1OC | inactive

same assay, conditions: 24 h, at 19.5 µM (top of the series)

Structure (SMILES) | activity, higher = inhibition
CCN(CC)C(=O)c1cccc(NC(=O)C2=COCCO2)c1 | inactive
Cc1ccc(CNCCCSc2ncccn2)cc1 | inactive
NCCCC[C@H](N[C@@H](CCc1ccccc1)C(=O)O)C(=O)N1CCC[C@H]1C(=O)O | inactive
CCNC(=O)[C@H]1O[C@@H](n2cnc3c(N)nc(NCCc4ccc(CCC(=O)O)cc4)nc32)[C@H](O)[C@@H]1O | inactive
CN(C)c1ccc(C(O)Cc2nc3ccccc3n2C)cc1 (configuration not stated) | inactive
COc1ccc(CC(NC(C)=O)C(=O)NC2CCN(C(=O)c3ccccc3F)CC2)cc1 (configuration not stated) | inactive
O=C(NNC(=O)c1cc2ccccc2oc1=O)c1ccccc1 | inactive
CCOc1cccc(C(=O)Nc2ccc3oc(Cc4ccc(Cl)cc4)nc3c2)c1 | inactive
CC(C)(C)NC(=O)NC(=O)COc1ccccn1 | inactive
COc1ccc2cc(CCNS(=O)(=O)c3ccc(NC(C)=O)cc3)c(=O)[nH]c2c1 | inactive
CCOC(=O)C1(Cc2cccc(OC)c2)CCN(CCO)CC1 | inactive
COc1ccc(-c2coc3cc(O)ccc3c2=O)cc1 | inactive
O=c1sc(N2CCN(c3ccc(F)cc3)CC2)nc2ccsc12 | inactive
Cc1cccc2cc(COC(=O)c3ccco3)c(=O)[nH]c12 | inactive
C=CCN1C(=O)/C(=C/c2ccc(-c3ccc(F)cc3)o2)SC1=S | inactive
COc1ccc(C=C2CS(=O)(=O)CC(=Cc3ccc(OC)cc3)C2=O)cc1 | inactive
CC(Cc1ccc(O)cc1)NCC(O)c1cc(O)cc(O)c1 (configuration not stated) | inactive
Cc1ccc(S(=O)(=O)NC(=O)Nn2c(C)nnc2C)cc1 | inactive
Cc1cccc2cc(CN(CC3CCCO3)C(=O)NC3CCCCC3)c(=O)[nH]c12 (configuration not stated) | inactive
CC(C)CN(C(=O)COC(=O)CSc1ccccc1)c1c(N)n(Cc2ccccc2)c(=O)[nH]c1=O | inactive
O=C(Nc1cnccn1)Nc1ccccc1Cl | inactive
Cc1cc(OCC(C)C)ccc1/C(O)=C1/C(=O)C(=O)N(Cc2cccnc2)C1c1ccncc1 (configuration not stated) | inactive
